Measurements: ChEMBL document CHEMBL5523668, “Elongation of N6-benzyladenosine scaffold via Pd-catalyzed C-C bond formation leads to derivatives with antiflaviviral activity” (Bioorg Med Chem, 2024)
Activity calls are given as the source filed them. The rule behind the calls is not given here.

What was measured:
Yellow fever virus = test: Antiviral activity against YFV infected in African green monkey Vero cells assessed as reduction in cytopathic effect by plaque reduction assay; type: functional, organism-based
West Nile virus [1] = test: Antiviral activity against WNV infected in African green monkey Vero cells; type: functional, organism-based
[2] = Cytotoxicity against porcine PEK cells assessed as reduction in cell viability after 7 days by resazurin staining based analysis; type: toxicity, Sus scrofa; conditions: pig, time 7 day
[3] = Cytotoxicity against African green monkey Vero cells assessed as reduction in cell viability after 7 days by resazurin staining based analysis; type: toxicity; conditions: chlorocebus sabaeus, time 7 day
[4] = test system: Tick-borne encephalitis virus; test: Antiviral activity against TBEV infected in porcine PEK cells pre-infected for 1 hr followed by cell addition for 1 hrs and measured after 6 days; type: functional, organism-based
[5] = test system: Tick-borne encephalitis virus; test: Antiviral activity against TBEV infected in porcine PEK cells assessed as reduction in cytopathic effect by plaque reduction assay; type: functional, organism-based
West Nile virus [6] = test: Antiviral activity against WNV infected in African green monkey Vero cells assessed as reduction in cytopathic effect by plaque reduction assay; type: functional, organism-based
[7] = test system: Tick-borne encephalitis virus; test: Antiviral activity against TBEV infected in porcine PS cells assessed as inhibition of virus induced cytopathic effect pre-infected with virus followed by compound addition and measured after 3 to 4 days by microscope based analysis; type: functional, organism-based
Enterovirus A71 = test: Antiviral activity against human EV71 BrCr infected human RD cells assessed as reduction in cytopathic effect pretreated with cells followed by viral infection and measured after 3 to 4 days post infection; type: functional, organism-based; conditions: Enterovirus A
[8] = Cytotoxicity against human RD cells; type: toxicity, cell-based
West Nile virus [9] = test: Antiviral activity against WNV infected in African green monkey Vero cells assessed as viral growth inhibition measured after 24 hrs; type: functional, organism-based
West Nile virus [10] = test: Antiviral activity against WNV infected in African green monkey Vero cells assessed as viral growth inhibition pre-infected with virus for 2 hrs followed by compound addition and measured 24 hrs post infection by time of addition assay; type: functional, organism-based; conditions: time 22.0 hrs
West Nile virus [11] = test: Antiviral activity against WNV infected in African green monkey Vero cells assessed as viral growth inhibition pre-infected with virus for 2 hrs followed by compound addition and measured after compound washout at 5 hrs post infection; type: functional, organism-based; conditions: time 3.0 hrs
West Nile virus [12] = test: Antiviral activity against WNV infected in African green monkey Vero cells assessed as viral growth inhibition pre-treated with compound for 2 hrs followed by viral infection and measured 24 hrs post infection; type: functional, organism-based; conditions: time 26.0 hrs
West Nile virus [13] = test: Antiviral activity against WNV infected in African green monkey Vero cells assessed as viral growth inhibition pre-infected with virus for 5 hrs followed by compound addition and measured 24 hrs post infection; type: functional, organism-based; conditions: time 19.0 hrs
[14] = Cytotoxicity against porcine PEK cells assessed as reduction in cell viability after 24 hrs by resazurin staining based analysis; type: toxicity, Sus scrofa; conditions: pig
[15] = Cytotoxicity against African green monkey Vero cells assessed as reduction in cell viability after 24 hrs by resazurin staining based analysis; type: toxicity; conditions: chlorocebus sabaeus
West Nile virus [16] = test: Antiviral activity against WNV NY99 infected in African green monkey Vero cells pretreated with cells for 16 hrs followed by viral infection for 1 hr and measured after 48 hrs by plaque assay; type: functional, organism-based
[17] = test system: Tick-borne encephalitis virus; test: Antiviral activity against TBEV infected in porcine PS cells pretreated with cells followed by viral infection and measured after 3 days post infection by microscope based analysis; type: functional, organism-based
[18] = test system: Tick-borne encephalitis virus; test: Antiviral activity against TBEV infected in porcine PS cells assessed as r inhibition of virus induced cytopathic effect pretreated with cells for 24 hrs followed by viral infection for 24 hrs and measured after 72 hrs post infection; type: functional, organism-based
[19] = Selectivity index, ratio of CC50 for human A549 cells to EC50 for TBEV infected in human A549 cells; type: toxicity, cell-based; conditions: read-out: Ratio CC50/EC50
[20] = test system: Tick-borne encephalitis virus; test: Antiviral activity against TBEV infected in human A549 cells assessed as inhibition of virus induced cytopathic effect; type: functional, organism-based
[21] = test system: Tick-borne encephalitis virus; test: Antiviral activity against TBEV infected in human A549 cells assessed as reduction in cytopathic effect pretreated with cells for 1 hr followed by viral infection and measured after 3 days; type: functional, organism-based

SMILES	EC50 (Yellow fever virus) [µM]	CC50 at 168 h [2] [µM]	CC50 at 168 h [3] [µM]	EC50 [5] [µM]	EC50 (West Nile virus [6]) [µM]	other results
Nc1onc(C(=O)OCC23CC4CC(CC(C4)C2)C3)c1CCc1ccccc1	2.2	> 100	> 100	–	–	EC50 (West Nile virus [1]): 1.8 µM; EC50 [4]: 1.8 µM
OC[C@H]1O[C@@H](n2cnc3c(NCc4ccc(C#CC5CCCC5)cc4)ncnc32)[C@H](O)[C@@H]1O	17.8	37	38	8	18	–
C[C@@]1(O)[C@H](O)[C@@H](CO)O[C@H]1n1cnc2c(N)ncnc21	–	–	–	–	–	EC50 [7]: 7.1 µM
C[C@@]1(O)[C@H](O)[C@@H](CO)O[C@H]1n1ccc2c(N)ncnc21 [BETA-2'-C-METHYL-7-DEAZA-ADENOSINE]	–	–	–	–	–	EC50 [7]: 5.1 µM
OC[C@H]1O[C@@H](n2cnc3c(NCc4c(F)cccc4F)ncnc32)[C@H](O)[C@@H]1O	–	–	–	–	–	EC50 (Enterovirus A71): 0.21 µM; CC50 [8]: > 245 µM
OC[C@H]1O[C@@H](n2cnc3c(NCc4ccc(C#CC5=CCCCC5)cc4)ncnc32)[C@H](O)[C@@H]1O	24	36.6	> 50	10	5	Activity (West Nile virus [9]): inactive; Activity (West Nile virus [10]): Active; Activity (West Nile virus [11]): inactive; Activity (West Nile virus [12]): inactive; Activity (West Nile virus [13]): Active
OC[C@H]1O[C@@H](n2cnc3c(NCc4ccc(-c5cccc(C(F)(F)F)c5)cc4)ncnc32)[C@H](O)[C@@H]1O	31	36.7	> 50	6	6.8	Activity (West Nile virus [9]): inactive; Activity (West Nile virus [10]): Active; Activity (West Nile virus [11]): inactive; Activity (West Nile virus [12]): inactive; CC50 at 24 h [14]: > 50 µM; CC50 at 24 h [15]: > 50 µM; Activity (West Nile virus [13]): Active
NC(=O)c1nc(F)cnc1O [FAVIPIRAVIR]	–	–	> 1000	–	–	EC50 (West Nile virus [16]): 94 µM
OC[C@H]1O[C@@H](n2cnc3c(NCc4cc(C(F)(F)F)cc(C(F)(F)F)c4)ncnc32)[C@H](O)[C@@H]1O	> 50	> 50	> 50	> 50	16	–
OC[C@H]1O[C@@H](n2cnc3c(NCc4ccc(C#CC5CC5)cc4)ncnc32)[C@H](O)[C@@H]1O	> 50	> 50	> 50	> 50	32	–
OC[C@H]1O[C@@H](n2cnc3c(NCc4ccc(-c5ccc(C(F)(F)F)cc5)cc4)ncnc32)[C@H](O)[C@@H]1O	27	26	28.5	4.7	8.3	–
OC[C@H]1O[C@@H](n2cnc3c(NCc4ccc(-c5ccccc5)cc4)ncnc32)[C@H](O)[C@@H]1O	> 50	> 50	> 50	> 50	13	CC50 at 24 h [14]: > 50 µM; CC50 at 24 h [15]: > 50 µM
OC[C@H]1O[C@@H](n2cnc3c(NCc4ccc(C#Cc5cc(C(F)(F)F)cc(C(F)(F)F)c5)cc4)ncnc32)[C@H](O)[C@@H]1O	5.6	8.1	15.7	2.2	1.5	–
OC[C@H]1O[C@@H](n2cnc3c(NCc4ccc(C#Cc5ccccc5)cc4)ncnc32)[C@H](O)[C@@H]1O	33	> 50	> 50	36.6	9.7	–
C[C@@]1(O)[C@H](O)[C@@H](CO)O[C@H]1n1ccc(N)nc1=O	–	–	–	–	–	EC50 [7]: 14.2 µM
[N-]=[N+]=N[C@]1(CO)O[C@@H](n2ccc(N)nc2=O)[C@H](O)[C@@H]1O [4'-AZIDOCYTIDINE]	–	–	–	–	–	EC50 [17]: 2.7 µM
OC[C@H]1O[C@@H](n2cnc3c(NCc4ccc(C(F)(F)F)cc4)ncnc32)[C@H](O)[C@@H]1O	> 50	> 50	> 50	> 50	7	–
OC[C@H]1O[C@@H](n2cnc3c(NCc4ccccc4C(F)(F)F)ncnc32)[C@H](O)[C@@H]1O	> 50	> 50	> 50	> 50	7.7	–
Nc1ncnc2c1ncn2[C@@H]1O[C@H](CO)[C@@H](F)[C@H]1O	–	–	–	–	–	EC50 [18]: 1.6 µM
OC[C@H]1O[C@@H](n2cnc3c(NCc4ccc(-c5ccccc5C(F)(F)F)cc4)ncnc32)[C@H](O)[C@@H]1O	46	> 50	> 41	17	24	CC50 at 24 h [14]: > 50 µM; CC50 at 24 h [15]: > 50 µM
CCC(CC)COC(=O)[C@H](C)N[P@](=O)(OC[C@H]1O[C@@](C#N)(c2ccc3c(N)ncnn23)[C@H](O)[C@@H]1O)Oc1ccccc1 [REMDESIVIR]	–	–	–	–	–	selectivity ratio [19]: 4.8; EC50 ([20]; Tick-borne encephalitis virus, A549): 2.1 µM; EC50 ([20]; a549): 3.5 µM
OC[C@H]1O[C@@H](n2cnc3c(NCc4cccc(C(F)(F)F)c4)ncnc32)[C@H](O)[C@@H]1O	> 50	> 50	> 50	> 50	8	CC50 [8]: > 235 µM
C#C[C@@]1(O)[C@H](O)[C@@H](CO)O[C@H]1n1ccc2c(N)ncnc21	–	–	–	–	–	EC50 [21]: 0.2 µM
